Here are results for four compounds from article PMC4321561, “Optimization of the cyclotide framework to improve cell penetration properties” (Frontiers in Pharmacology, 2015).

For data set [1], the system named is HeLa cells. Put plainly: Internalization of Alexa fluor 488-labeled peptides into HeLa cells (flow cytometry). Type of data set: cell-based, human. Conditions: 8 μM Alexa fluor 488-labeled peptide, 1 h, 37°C, medium without serum, flow cytometry, 10,000 cells, mean ± SD of three independent experiments. In general terms: A flow cytometer gives signals particle by particle.

Data set [2] in a line: Serum stability. Type of data set: in vitro ADME. The conditions noted are these: 300 μM stock diluted 10 times in 100% human serum (male AB plasma), 37°C, analytical HPLC, 215 nm, triplicate; for stability in human serum (in words): 0-24 h. How it is done: The stability of peptides in human serum was examined using a protocol reported previously (Chan et al., [2011]). Briefly, stock solutions of peptides (300 μM) were diluted 10 times with pre-warmed 100% human serum isolated from male AB plasma (Sigma-Aldrich) and incubated at 37°C for 0, 1, 2, 3, 5, 8, 12 and 24 h. Controls with peptides in PBS were included. The reaction was stopped by denaturing the serum proteins with urea at a final concentration of 3 M at 4°C for 10 min, followed by precipitation of serum proteins with trichloroacetic acid at a final concentration of 7% (v/v) (4°C, 10 min) and centrifugation (17,000 g, 10 min). The supernatant of each sample was recovered and run on an analytical column using a linear gradient of 5–30% solvent B (acetonitrile 90% (v/v) with 0.045% (v/v) TFA in H2O) in solvent A (0.05% (v/v) TFA in H2O) over 25 min at a flow rate of 0.3 mL/min with monitoring at 215 nm. The elution profile of each peptide was identified by the PBS sample from 0 time point. The percentage of peptide remaining in serum-treated samples was determined by comparing the height of the peptide peak obtained at each time point with that of the peptide peak obtained at 0 time point. Each experiment was done in triplicate.
Figure 4 Serum-stability of tested peptides. Percentage of peptide remaining upon incubation with human serum. The portion of serum-treated peptide remaining was determined by calculating the height of the respective elution peak in analytical-HPLC and comparing it with control without incubation. Data points are means ± SD of three experiments.

Where a SMILES comes first, the peptide text is derived from it. Bridges are numbered along the chain shown (N, C = ends). Where no end group is shown, it is not given here.

In the case of “NH2-YGRKKRRQRRRPPQG-COOH [TAT, gold standard linear cell-penetrating peptide]”, the “Fluorescence signal of HeLa cells, before trypan blue (mean fluorescence emission normalized to TAT after trypan blue)” value in data set [1] (ex 488 nm / em 530/30 nm) came out at 1.08 ± 0.07. Further, the “Fluorescence signal of HeLa cells, after trypan blue (mean fluorescence emission normalized to TAT after trypan blue)” value in data set [1] (trypan blue 160 μg/mL) is recorded as 1.00 ± 0.17. Consider YGRKARRRRRR [CTP512], for which the “time to full degradation by proteases in serum” value in data set [2] (peak height vs 0 time point) is on record as at most 1 h. As for `CC[C@H](C)[C@@H]1NC(=O)[C@@H]2CSSC[C@@H]3NC(=O)[C@H](C(C)C)NC(=O)CNC(=O)CNC(=O)[C@H](CC(=O)O)NC(=O)[C@H](CO)NC(=O)CNC(=O)[C@H](CO)NC(=O)CNC(=O)[C@@H]4CSSC[C@H](NC(=O)[C@H](CC(=O)O)NC(=O)[C@H](CO)NC(=O)[C@H](CC(=O)O)NC(=O)[C@H](CCCNC(=N)N)NC(=O)[C@H](CCCNC(=N)N)NC(=O)[C@H](CSSC[C@H](NC1=O)C(=O)N[C@@H](CCCCN)C(=O)NCC(=O)N[C@@H](CC(N)=O)C(=O)NCC(=O)N[C@@H](Cc1ccc(O)cc1)C(=O)N4)NC(=O)[C@H](CCCNC(=N)N)NC(=O)[C@H](CCCNC(=N)N)NC(=O)[C@H](CC(C)C)NC(=O)[C@H]([C@@H](C)CC)NC(=O)[C@H](CCCNC(=N)N)NC(=O)[C@@H]1CCCN1C3=O)C(=O)N1CCC[C@H]1C(=O)NCC(=O)N[C@@H](C)C(=O)N2` [MCo-RM1] (cyclo(ACICKGNGYCGSGSDGGVCPRILRRCRRDSDCPG); disulfide 2-19, 4-26, 10-32), the “stability in human serum (in words)” value in data set [2] is listed as “stable in human serum”. As usually defined, the amount remaining is what is left of the initial amount, in per cent. As to `CC[C@H](C)[C@@H]1NC(=O)[C@@H]2CSSC[C@@H]3NC(=O)[C@H](C(C)C)NC(=O)CNC(=O)CNC(=O)[C@H](CC(=O)O)NC(=O)[C@H](CO)NC(=O)CNC(=O)[C@H](CO)NC(=O)CNC(=O)[C@@H]4CSSC[C@H](NC(=O)[C@H](CC(=O)O)NC(=O)[C@H](CO)NC(=O)[C@H](CC(=O)O)NC(=O)[C@H](CCCNC(=N)N)NC(=O)[C@H](CCCNC(=N)N)NC(=O)[C@H](CSSC[C@H](NC1=O)C(=O)N[C@@H](CCCCN)C(=O)NCC(=O)N[C@@H](CC(N)=O)C(=O)NCC(=O)N[C@@H](Cc1ccc(O)cc1)C(=O)N4)NC(=O)[C@H](CCCNC(=N)N)NC(=O)[C@H](CCCNC(=N)N)NC(=O)[C@H](CCCNC(=N)N)NC(=O)[C@H](C)NC(=O)[C@H](CCCNC(=N)N)NC(=O)[C@H](CCCNC(=N)N)NC(=O)CNC(=O)[C@H](Cc1ccc(O)cc1)NC3=O)C(=O)N1CCC[C@H]1C(=O)NCC(=O)N[C@@H](C)C(=O)N2` [MCo-CTP] (cyclo(ACICKGNGYCGSGSDGGVCYGRRARRRCRRDSDCPG); disulfide 2-19, 4-28, 10-34), the “stability in human serum (in words)” value in data set [2] is listed as “stable in human serum”. Further, the fraction remaining at 12 h, 30 µM in data set [2] (12 h, peak height vs 0 time point, read-out: peptide remaining intact after 12 h incubation in serum) is over 60%.
